Measurements published in ChEMBL document CHEMBL3822396 (J Med Chem, 2016).
pIC50: −log10 of the molar value. Blank lines part the entries; values can stand above or below the compound they belong to. Active and inactive are the calls of the source. The rule behind the calls is not given here.

Legend:
[1] = Cmax in Sprague-Dawley rat at 2 mg/kg, po administered through cassette dosing as by LC-MS/MS analysis; type: ADME, organism-based; set-up: dose 2 mg/kg, route oral; settings: in vivo
[2] = AUC in Sprague-Dawley rat at 2 mg/kg, po administered through cassette dosing by LC-MS/MS analysis; type: ADME, organism-based; settings: in vivo
[3] = target: Mitogen-activated protein kinase 14 (Homo sapiens, UniProt Q16539)
[4] = target: Vascular endothelial growth factor receptor 2 (Homo sapiens, UniProt P35968)
[5] = Permeability of the compound; type: ADME; settings: not told; read-out: permeability
Intestinal mucosa [6] = experiment: Inhibition of TNFalpha production in intestinal mucosa derived from Crohn's disease patient at 1 uM measured after 24 hrs by sandwich ELISA; type: functional, tissue-based; settings: Homo sapiens
Intestinal mucosa [7] = experiment: Inhibition of IL6 production in intestinal mucosa derived from Crohn's disease patient at 1 uM measured after 24 hrs by sandwich ELISA; type: functional, tissue-based; settings: Homo sapiens
Intestinal mucosa [8] = experiment: Inhibition of TNFalpha production in intestinal mucosa derived from ulcerative colitis patient at 1 uM measured after 24 hrs by sandwich ELISA; type: functional, tissue-based; settings: Homo sapiens
Intestinal mucosa [9] = experiment: Inhibition of IL6 production in intestinal mucosa derived from ulcerative colitis patient at 1 uM measured after 24 hrs by sandwich ELISA; type: functional, tissue-based; settings: Homo sapiens

Sequence of Mitogen-activated protein kinase 14 (Q16539 whole entry): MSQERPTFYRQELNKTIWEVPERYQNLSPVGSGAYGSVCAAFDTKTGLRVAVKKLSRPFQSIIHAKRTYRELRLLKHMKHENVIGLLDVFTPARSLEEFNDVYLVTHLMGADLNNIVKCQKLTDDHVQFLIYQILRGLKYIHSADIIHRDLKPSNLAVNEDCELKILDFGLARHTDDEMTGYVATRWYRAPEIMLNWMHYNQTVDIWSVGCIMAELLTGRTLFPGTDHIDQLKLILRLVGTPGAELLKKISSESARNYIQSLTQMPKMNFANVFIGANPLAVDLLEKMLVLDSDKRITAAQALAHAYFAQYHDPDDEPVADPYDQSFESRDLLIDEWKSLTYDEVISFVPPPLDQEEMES
Sequence of Vascular endothelial growth factor receptor 2 (P35968 whole entry): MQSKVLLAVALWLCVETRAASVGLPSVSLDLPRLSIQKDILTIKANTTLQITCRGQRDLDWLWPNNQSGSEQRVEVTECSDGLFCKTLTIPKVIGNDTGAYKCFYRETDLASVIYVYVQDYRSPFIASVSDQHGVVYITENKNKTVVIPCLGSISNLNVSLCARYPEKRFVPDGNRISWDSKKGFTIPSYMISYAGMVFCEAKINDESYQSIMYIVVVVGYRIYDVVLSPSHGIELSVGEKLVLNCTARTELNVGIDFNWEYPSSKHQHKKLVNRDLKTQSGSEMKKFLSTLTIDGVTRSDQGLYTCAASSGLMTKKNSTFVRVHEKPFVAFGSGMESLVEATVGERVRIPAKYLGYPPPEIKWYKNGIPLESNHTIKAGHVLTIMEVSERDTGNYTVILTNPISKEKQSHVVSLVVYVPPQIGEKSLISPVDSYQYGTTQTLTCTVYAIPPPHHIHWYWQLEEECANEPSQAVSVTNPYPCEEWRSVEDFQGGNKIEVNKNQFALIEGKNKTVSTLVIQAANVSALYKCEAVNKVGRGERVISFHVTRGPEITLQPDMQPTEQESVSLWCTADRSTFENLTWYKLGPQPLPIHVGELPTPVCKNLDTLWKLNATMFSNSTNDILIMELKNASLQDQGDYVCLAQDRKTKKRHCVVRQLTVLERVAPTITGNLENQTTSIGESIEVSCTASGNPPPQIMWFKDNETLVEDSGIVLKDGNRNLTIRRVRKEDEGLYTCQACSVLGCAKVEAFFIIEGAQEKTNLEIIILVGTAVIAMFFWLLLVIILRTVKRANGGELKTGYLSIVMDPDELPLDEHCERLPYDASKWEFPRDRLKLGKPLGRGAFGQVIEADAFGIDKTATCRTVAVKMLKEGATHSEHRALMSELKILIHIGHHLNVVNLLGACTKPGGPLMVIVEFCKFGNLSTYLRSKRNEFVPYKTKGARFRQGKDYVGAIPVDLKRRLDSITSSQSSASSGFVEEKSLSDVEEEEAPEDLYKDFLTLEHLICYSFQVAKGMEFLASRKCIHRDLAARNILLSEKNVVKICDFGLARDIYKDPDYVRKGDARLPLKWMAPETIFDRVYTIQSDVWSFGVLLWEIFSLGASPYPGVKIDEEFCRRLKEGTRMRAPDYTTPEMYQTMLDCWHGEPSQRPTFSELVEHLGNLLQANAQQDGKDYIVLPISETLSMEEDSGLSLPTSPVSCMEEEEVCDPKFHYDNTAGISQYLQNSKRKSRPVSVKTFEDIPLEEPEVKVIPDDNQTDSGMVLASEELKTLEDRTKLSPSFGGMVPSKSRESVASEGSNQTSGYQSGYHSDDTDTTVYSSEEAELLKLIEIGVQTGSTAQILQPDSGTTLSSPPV

SMILES: CC(C)S(=O)(=O)c1ccc2nccc(Nc3n[nH]c4ccc(F)cc34)c2c1
Cmax [1]: 370 ng/mL
AUC [2]: 1100 ng·h/mL
pIC50 [3]: < 5.30
pIC50 [4]: < 5.30

SMILES: CS(=O)(=O)c1ccc2nccc(Nc3n[nH]c4ccc(F)cc34)c2c1
Cmax [1]: 500 ng/mL
AUC [2]: 1700 ng·h/mL

SMILES: C[C@]12C=CC(=O)C=C1CC[C@@H]1[C@@H]2[C@@H](O)C[C@@]2(C)[C@H]1CC[C@]2(O)C(=O)CO
inhibition (Intestinal mucosa [6]): Active
inhibition (Intestinal mucosa [7]): Active
inhibition (Intestinal mucosa [8]): Active
inhibition (Intestinal mucosa [9]): Active

SMILES: Cc1ccc(O)cc1Nc1ccnc2ccc(-c3cccnc3)cc12
Papp [5]: 23 ×10⁻⁶ cm/s

SMILES: Cc1ccc(O)cc1Nc1ccnc2ccc(C(=O)NCC3CCOCC3)cc12
Papp [5]: 1.5 ×10⁻⁶ cm/s
pIC50 [3]: < 5.30
pIC50 [4]: < 5.30

The remaining lines, values ahead:

Papp [5]: 25 ×10⁻⁶ cm/s
SMILES: Cc1ccc(O)cc1Nc1ccnc2ccccc12

Papp [5]: 7.9 ×10⁻⁶ cm/s
SMILES: Cc1ccc(O)cc1Nc1ccnc2ccc(S(C)(=O)=O)cc12 [GW559768X]

Papp [5]: 23 ×10⁻⁶ cm/s
SMILES: COc1ccc2nccc(Nc3cc(O)ccc3C)c2c1

Papp [5]: 49 ×10⁻⁶ cm/s
SMILES: Cc1ccc(O)cc1Nc1ccnc2ccc(C(F)(F)F)cc12
